This note sets out measurements from article PMC12525728, “Safety, Pharmacokinetics, Translational and Molecular Mechanistic Insights on the Prostate Cancer Recurrence Suppressor Pseurotin A” (Molecules, 2025).

Where “and” joins values, the source holds several entries; their conditions need not be identical. Equal entries are not always repeated.

Data set [1] can be described thus: Qualitative tissue distribution (biodistribution) study after IP dosing. Type of data set: in vivo, Swiss albino mice. As to conditions: IP 125 mg/kg, 7 min after dosing. The method, then: Five µL of the IS ([…]) and 20 µL of 50, 40, 30, 20, 10, 8, and 4 µg/mL PsA standard solutions were combined with 15 µL freshly extracted blank mouse plasma. 300 µL of a 70% EtOAc/30% isopropanol mixture was added and vortexed for 30 s. Following centrifugation at 15,000× g for 10 min, the supernatant was transferred to a 2 mL Eppendorf tube for nitrogen evaporation. The residues were reconstituted in 25 µL HPLC-grade MeOH before being subjected to 30 s sonication followed by centrifugation at 15,000× g for 10 min. Afterwards, the entire sample was immediately injected for RP-HPLC analysis. The mouse plasma samples used in the PK study were subjected to the same extraction method, minus the addition of the PsA standard solutions. After weighing, each mouse organ was reconstituted in 500 µL PBS, then homogenized using the MISONIX Sonicator (Division of QSonica LLC, Newtown, CT, USA). Samples were centrifuged at 15,000× g for 10 min, and the supernatant was collected and transferred to a 2 mL Eppendorf. About 5 µL of IS (25 µL/mL) and 300 µL of a 70% EtOAc/30% isopropanol mixture were added to 100 µL of supernatant and vortexed for 30 s. Following centrifugation at 15,000× g for 10 min, the supernatant was transferred to a 2 mL Eppendorf tube and evaporated under N2. The remains were reconstituted in 40 µL HPLC-grade methanol before being subjected to 30 s sonication followed by centrifugation at 15,000× g for 10 min.
For the biodistribution study, four healthy male and two healthy female Swiss albino mice were randomly selected and placed in 2 groups (n = 3/group). The mice received free access to drinking water and pelleted regular rodent chow (Cat# 7012, Envigo/Teklad, Madison, WI, USA) until the day before experimentation, after which they were fasted for 8 h and allowed only free access to drinking water. One group was IP administered 125 mg/kg PsA formulated in PBS-DMSO (925:75) + 0.2% Tween 80 at a body weight-adjusted volume not exceeding 300 µL. […] Collected samples were immediately extracted using the described method above and analyzed using HPLC.

The next data set concerns mCRPC CWR-R1ca-Luc cells. Nature of the data set: mCRPC recurrence prevention study after neoadjuvant DTX and ENZ and primary tumor excision. The class given is in vivo, athymic male nude mice. As to conditions: 60 days. The method, then: For the recurrence prevention study, nineteen 7–8-week-old athymic male nude mice (Strain Foxn^nu-Foxn^1+) were xenografted with 2 × 10^6 the mCRPC CWR-R1ca-Luc cells at the suprascapular region in 100 µL 1:1 serum-free Dulbecco’s Modified Eagle Medium (DMEM) medium-Matrigel. Mice were fed on an HFD (11.4% total fat, Cat# 7004, Envigo/Teklad, Madison, WI, USA) for 7 days before the tumor cells xenografting. When the tumors reached 100 mm^3, mice were subjected to weekly IV injections of 10 mg/kg docetaxel (DTX) (Combi-Blocks, San Diego, CA, USA) dissolved in Tween 80 (20 mg/mL) for four consecutive weeks, followed by daily IP injections of 5 mg/kg ENZ (Combi-Blocks, San Diego, CA, USA) in sterile PBS for three weeks. Following these neoadjuvant regimens, mice were randomly selected and placed into three groups. Groups 1 (n = 7) received daily oral doses of 20 mg/kg PsA (prepared in sterile PBS-DMSO 925:75). Group 2 (n = 5) received daily oral PsA 10 mg/kg. Group 3 (n = 7) received daily oral doses of PsA-free vehicle control. Treatments continued for 60 days. Isoflurane-anesthetized mice were subjected to weekly tumor monitoring using PerkinElmer IVIS Lumina Series III (Waltham, MA, USA) 30 min after an IP injection of (+)-luciferin (75 mg/kg, IP, PerkinElmer, Waltham, MA, USA) for efficiency assessment of excision surgery, tumor progression, and tumor metastasis. Following treatment regimen completion, mice were anesthetized using isoflurane (USP-vaporizer method, Matrix VIP-3000), exposure of animals in an anesthesia chamber at 3% isoflurane vaporization rate. Exposure time 2 min. Mice were then euthanized by cervical dislocation according to the American Veterinary Medical Association (AVMA) Guidelines for the Euthanasia of Animals: 2020 Edition, and tumors were collected. Tumors were snap frozen using Isopentane (J.T. Baker, Radnor, PA, USA) in liquid nitrogen before storage at −80 °C.

Consider `CC/C=C\[C@H](O)[C@H](O)C1=C(C)C(=O)[C@]2(O1)C(=O)N[C@@](OC)(C(=O)c1ccccc1)[C@@H]2O` [PsA, pseurotin A], for which, in data set [1], the “PsA HPLC peak in brain tissue (BBB crossing)” value is “did not display PsA peak”; the “PsA HPLC peak in liver, kidney, heart and spleen tissue” value was “prominent PsA peak”; the “PsA HPLC peak in plasma” value is “prominent PsA peak”. In the data set with mCRPC CWR-R1ca-Luc cells (PsA 10 mg/kg daily oral, n = 5), the “Distant recurrence Backbone, affected mice per group” value is given as 1/5; the “Distant recurrence Brain, affected mice per group” value is recorded as 2/5; the “Distant recurrence Femur, affected mice per group” value is 1/5; the “Distant recurrence Heart, affected mice per group” value is 1/5. Further, in the data set on mCRPC CWR-R1ca-Luc cells (PsA 10 mg/kg daily oral, n = 5), the “Distant recurrence Kidney, affected mice per group” value is listed as 0/5; the “Distant recurrence Liver, affected mice per group” value was 1/5; the “Distant recurrence Lung, affected mice per group” value was 1/5; the “Distant recurrence Spleen, affected mice per group” value is 1/5. Besides, the “Locoregional recurrence, affected mice per group” value in the data set on mCRPC CWR-R1ca-Luc cells (PsA 10 mg/kg daily oral, n = 5) was “one and 1/5”. In the data set with mCRPC CWR-R1ca-Luc cells (PsA 20 mg/kg daily oral, n = 7), the “Distant recurrence Backbone, affected mice per group” value was 0/7; the “Distant recurrence Brain, affected mice per group” value was 2/7; the “Distant recurrence Femur, affected mice per group” value is reported as 1/7; the “Distant recurrence Heart, affected mice per group” value is given as 0/7. Also, in the data set with mCRPC CWR-R1ca-Luc cells (PsA 20 mg/kg daily oral, n = 7), the “Distant recurrence Kidney, affected mice per group” value is 0/7; the “Distant recurrence Liver, affected mice per group” value is 1/7; the “Distant recurrence Lung, affected mice per group” value was 0/7; the “Distant recurrence Spleen, affected mice per group” value is recorded as 0/7. In addition, the “Locoregional recurrence, affected mice per group” value in the data set on mCRPC CWR-R1ca-Luc cells (PsA 20 mg/kg daily oral, n = 7) was “one and 1/7”.
